Test results: ChEMBL document CHEMBL1201862, “PubChem BioAssay data set” (2004)
The source made the active and inactive calls.

How the values were obtained:
[1] = MIN6 cell viability loss – mouse insulinoma, cytotoxicity control, dose response (AID 2122); assay type: functional;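 also: confirmatory high-throughput counterscreen run to flag cytotoxic compounds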
[2] = decrease of insulin promoter-GFP reporter – imaging, high-content screening, mouse beta cells (AID 1628); assay type: functional; details: MIN6
[3] = Luminescence Cell-Based Dose Response HTS to Identify Activators of Luciferase Translation or Activity in H4 […] Cells. [Related pubchem assays: 1829 (Project Summary), 1814 (Primary HTS)]; assay type: functional
H4 = assay: Luminescence Cell-Based Dose Response HTS to Identify Activators of 5'UTR Stem-Loop Driven Prion Protein mRNA Translation in H4 Neuroglioblastoma Cells. [Related pubchem assays: 1829 (Project Summary), 1814 (Primary HTS)]; assay type: functional; details: Homo sapiens
[4] = Luminescence Cell-Based Dose Confirmation HTS to Identify Activators of 5'UTR Stem-Loop Driven Alpha-Synuclein mRNA Translation in H4 Neuroglioblastoma Cells. [Related pubchem assays: 1829 (Project Summary), 1814 (Primary HTS)]; assay type: functional
[5] = target: T1, Short transient receptor potential channel 4 (Mus musculus, UniProt Q9QUQ5); assay: calcium entry via TRPC4 opening agents – cell-based, HEK293 TRPC4/mu-opioid, Fluo-4 calcium, dose response (AID 434937); assay type: functional
T1 sequence (Q9QUQ5 whole entry): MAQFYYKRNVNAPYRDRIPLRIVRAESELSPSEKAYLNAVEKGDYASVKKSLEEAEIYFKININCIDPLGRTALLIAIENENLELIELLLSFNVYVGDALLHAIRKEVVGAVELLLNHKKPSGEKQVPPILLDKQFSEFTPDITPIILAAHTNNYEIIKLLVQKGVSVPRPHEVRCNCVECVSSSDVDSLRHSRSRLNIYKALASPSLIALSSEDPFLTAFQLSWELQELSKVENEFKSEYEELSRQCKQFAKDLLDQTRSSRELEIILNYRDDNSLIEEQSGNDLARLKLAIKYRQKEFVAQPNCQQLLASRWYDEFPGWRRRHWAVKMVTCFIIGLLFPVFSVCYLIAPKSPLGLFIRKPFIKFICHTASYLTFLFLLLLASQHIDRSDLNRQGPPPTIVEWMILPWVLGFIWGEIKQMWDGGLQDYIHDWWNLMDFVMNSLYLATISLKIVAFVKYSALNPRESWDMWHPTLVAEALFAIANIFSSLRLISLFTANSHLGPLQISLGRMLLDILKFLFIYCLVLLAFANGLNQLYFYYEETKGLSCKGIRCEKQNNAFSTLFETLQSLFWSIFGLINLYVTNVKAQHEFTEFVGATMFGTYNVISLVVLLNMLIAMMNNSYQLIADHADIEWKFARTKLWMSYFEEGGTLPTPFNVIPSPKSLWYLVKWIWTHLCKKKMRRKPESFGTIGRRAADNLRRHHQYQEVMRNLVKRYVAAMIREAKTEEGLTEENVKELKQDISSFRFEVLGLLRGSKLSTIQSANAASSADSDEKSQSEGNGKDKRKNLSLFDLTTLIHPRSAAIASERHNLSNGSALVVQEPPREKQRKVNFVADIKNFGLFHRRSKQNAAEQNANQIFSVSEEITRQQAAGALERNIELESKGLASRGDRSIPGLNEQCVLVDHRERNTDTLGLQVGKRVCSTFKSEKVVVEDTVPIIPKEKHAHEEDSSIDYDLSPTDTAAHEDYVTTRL

Cytochrome P450 3A4 = Cytochrome P450 3A4 (Homo sapiens, UniProt P08684);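 also: CYP3A4 tested as one member of a cytochrome P450 panel screen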
Cytochrome P450 3A4, sequence (P08684 whole entry): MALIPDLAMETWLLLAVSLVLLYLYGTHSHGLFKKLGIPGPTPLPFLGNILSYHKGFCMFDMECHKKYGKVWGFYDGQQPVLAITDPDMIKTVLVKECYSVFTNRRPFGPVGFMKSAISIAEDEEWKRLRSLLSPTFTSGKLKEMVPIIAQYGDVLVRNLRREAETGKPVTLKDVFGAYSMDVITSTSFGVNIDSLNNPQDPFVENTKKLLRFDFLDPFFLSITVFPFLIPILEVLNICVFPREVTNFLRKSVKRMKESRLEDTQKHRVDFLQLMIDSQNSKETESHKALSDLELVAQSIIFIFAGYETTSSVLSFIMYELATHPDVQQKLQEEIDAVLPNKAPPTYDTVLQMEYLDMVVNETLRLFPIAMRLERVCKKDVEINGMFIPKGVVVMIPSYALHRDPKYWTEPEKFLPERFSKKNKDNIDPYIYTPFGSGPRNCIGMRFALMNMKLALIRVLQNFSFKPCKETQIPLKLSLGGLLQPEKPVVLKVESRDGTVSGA

Cytochrome P450 2C9 = Cytochrome P450 2C9 (Homo sapiens, UniProt P11712)
Cytochrome P450 2C9, sequence (P11712 whole entry): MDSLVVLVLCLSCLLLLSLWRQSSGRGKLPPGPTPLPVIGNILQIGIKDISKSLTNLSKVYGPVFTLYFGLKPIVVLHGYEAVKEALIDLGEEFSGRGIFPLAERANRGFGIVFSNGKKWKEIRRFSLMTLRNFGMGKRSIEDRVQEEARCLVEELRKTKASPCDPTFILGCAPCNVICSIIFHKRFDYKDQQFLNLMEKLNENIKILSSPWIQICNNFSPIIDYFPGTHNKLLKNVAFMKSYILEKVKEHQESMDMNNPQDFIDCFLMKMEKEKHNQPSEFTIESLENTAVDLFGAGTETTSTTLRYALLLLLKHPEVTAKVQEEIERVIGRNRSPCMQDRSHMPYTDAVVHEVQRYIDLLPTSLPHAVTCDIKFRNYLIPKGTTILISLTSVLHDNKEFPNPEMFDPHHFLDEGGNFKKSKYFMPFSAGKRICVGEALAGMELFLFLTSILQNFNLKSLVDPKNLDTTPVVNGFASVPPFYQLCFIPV

Cytochrome P450 2D6 = Cytochrome P450 2D6 (Homo sapiens, UniProt P10635);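 also: CYP2D6 member of a cytochrome P450 panel assay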
Cytochrome P450 2D6, sequence (P10635 whole entry): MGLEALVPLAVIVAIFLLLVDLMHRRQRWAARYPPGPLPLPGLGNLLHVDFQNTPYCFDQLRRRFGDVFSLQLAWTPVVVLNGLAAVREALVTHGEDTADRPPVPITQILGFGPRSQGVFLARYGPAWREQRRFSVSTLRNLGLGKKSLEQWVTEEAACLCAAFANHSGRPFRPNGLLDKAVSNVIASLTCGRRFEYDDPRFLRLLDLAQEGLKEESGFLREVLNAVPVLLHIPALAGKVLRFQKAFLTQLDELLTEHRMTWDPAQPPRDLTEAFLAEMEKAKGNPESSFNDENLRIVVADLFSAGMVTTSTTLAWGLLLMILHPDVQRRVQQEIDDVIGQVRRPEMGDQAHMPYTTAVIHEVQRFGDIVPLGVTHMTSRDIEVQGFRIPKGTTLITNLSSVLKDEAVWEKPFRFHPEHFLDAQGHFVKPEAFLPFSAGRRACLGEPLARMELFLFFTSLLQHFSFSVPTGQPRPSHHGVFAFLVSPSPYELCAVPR

[6] = target: T2, High affinity choline transporter 1 (Homo sapiens, UniProt Q9GZV3); assay: human choline transporter blockers, potency – cell-based, 5-point CRC, membrane potential dye, dose response (AID 504840); assay type: functional
T2 sequence (Q9GZV3 whole entry): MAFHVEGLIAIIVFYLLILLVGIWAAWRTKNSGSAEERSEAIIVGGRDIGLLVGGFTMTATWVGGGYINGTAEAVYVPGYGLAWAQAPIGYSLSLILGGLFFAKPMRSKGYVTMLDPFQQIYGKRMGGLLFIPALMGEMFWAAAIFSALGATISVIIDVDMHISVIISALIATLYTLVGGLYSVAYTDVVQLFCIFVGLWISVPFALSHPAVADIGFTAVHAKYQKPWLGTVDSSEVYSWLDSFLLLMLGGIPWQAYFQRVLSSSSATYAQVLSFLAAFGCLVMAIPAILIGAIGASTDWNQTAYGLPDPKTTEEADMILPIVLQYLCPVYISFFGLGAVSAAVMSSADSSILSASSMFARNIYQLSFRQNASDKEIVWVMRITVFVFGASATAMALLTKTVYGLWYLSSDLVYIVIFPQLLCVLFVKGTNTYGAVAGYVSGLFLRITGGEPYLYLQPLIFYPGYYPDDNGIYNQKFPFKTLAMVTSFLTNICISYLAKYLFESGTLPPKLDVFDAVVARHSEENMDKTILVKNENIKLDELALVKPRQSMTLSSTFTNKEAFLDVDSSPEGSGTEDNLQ

Leucine aminopeptidase = target: T3, Leucine aminopeptidase (Plasmodium falciparum 3D7, UniProt Q8IL11); assay: P. falciparum M17LAP inhibitors, primary screen, biochemical, fluorogenic H-Leu-NHMec substrate, 1536-well (AID 1619); assay type: functional
T3 sequence (Q8IL11 whole entry): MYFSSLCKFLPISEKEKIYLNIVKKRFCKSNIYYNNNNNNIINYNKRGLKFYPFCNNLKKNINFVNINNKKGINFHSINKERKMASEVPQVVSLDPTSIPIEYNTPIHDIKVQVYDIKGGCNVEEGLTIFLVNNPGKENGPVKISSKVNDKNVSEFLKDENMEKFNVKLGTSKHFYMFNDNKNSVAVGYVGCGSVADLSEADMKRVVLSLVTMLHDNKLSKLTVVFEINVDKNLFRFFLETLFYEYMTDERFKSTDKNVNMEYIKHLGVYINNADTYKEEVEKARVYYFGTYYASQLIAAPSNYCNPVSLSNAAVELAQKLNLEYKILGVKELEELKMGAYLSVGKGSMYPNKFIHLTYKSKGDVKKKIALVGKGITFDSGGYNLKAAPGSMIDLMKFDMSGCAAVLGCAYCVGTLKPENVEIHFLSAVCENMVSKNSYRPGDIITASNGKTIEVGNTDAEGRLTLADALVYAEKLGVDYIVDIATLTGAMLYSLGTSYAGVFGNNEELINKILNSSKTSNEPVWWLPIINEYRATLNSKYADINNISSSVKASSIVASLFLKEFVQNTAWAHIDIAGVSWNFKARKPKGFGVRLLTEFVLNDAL

[7] = fluconazole-exposed Candida albicans growth modulators – fluorescence, retest, confirmation (AID 2467); assay type: functional, cell-based
[8] = NIH-3T3 fibroblast cytotoxicity, dose response, cytotoxicity control, cell-based, fluorescence, Alamar Blue, secondary assay (AID 2327); assay type: functional;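 also: NIH-3T3 mouse fibroblasts cultured with fluconazole at 8 µg/mL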
Vero [9] = assay: cells; assay type: functional; details: Chlorocebus sabaeus
Vero [10] = assay: cells; assay type: functional, cell-based; details: Chlorocebus sabaeus
[11] = target: Heat shock protein HSP 90-alpha (Homo sapiens, UniProt P07900); assay type: functional, organism-based
Cytochrome P450 1A2 = target: T4, Cytochrome P450 1A2 (Homo sapiens, UniProt P05177);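 also: PubChem cytochrome P450 panel assay, CYP1A2 panel member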
T4 sequence (P05177 whole entry): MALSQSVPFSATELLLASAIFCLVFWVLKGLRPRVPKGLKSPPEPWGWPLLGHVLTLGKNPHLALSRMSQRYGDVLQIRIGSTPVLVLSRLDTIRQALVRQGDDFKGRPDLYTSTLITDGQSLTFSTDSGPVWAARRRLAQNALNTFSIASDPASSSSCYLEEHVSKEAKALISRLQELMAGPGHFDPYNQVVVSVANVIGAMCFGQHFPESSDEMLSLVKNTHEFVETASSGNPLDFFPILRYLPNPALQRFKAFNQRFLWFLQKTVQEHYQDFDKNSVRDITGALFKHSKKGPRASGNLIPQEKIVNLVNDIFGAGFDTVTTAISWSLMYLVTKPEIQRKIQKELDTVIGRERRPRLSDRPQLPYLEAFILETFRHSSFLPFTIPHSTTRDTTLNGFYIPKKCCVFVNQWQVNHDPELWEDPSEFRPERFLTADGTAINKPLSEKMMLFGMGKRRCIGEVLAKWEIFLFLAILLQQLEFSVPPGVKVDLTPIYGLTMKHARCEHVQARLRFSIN

Streptococcus = assay: GAS UMAA2166 growth inhibition – luminescence, BacTiterGlo, counter-screen for streptokinase expression inhibitor project, dose response (AID 1915); assay type: functional, organism-based;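 also: potency for reduction of bacterial viability or growth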
Streptokinase A = target: T5, Streptokinase A (Streptococcus pyogenes serotype M1, UniProt P10520); assay: viability-normalized secreted streptokinase activity reduction – plasminogen activation absorbance, OD405, dose response (AID 1914); assay type: functional, Streptococcus pyogenes M1 GAS;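 also: secreted streptokinase activity via plasminogen activation per viability signal from cell pellet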
T5 sequence (P10520 whole entry): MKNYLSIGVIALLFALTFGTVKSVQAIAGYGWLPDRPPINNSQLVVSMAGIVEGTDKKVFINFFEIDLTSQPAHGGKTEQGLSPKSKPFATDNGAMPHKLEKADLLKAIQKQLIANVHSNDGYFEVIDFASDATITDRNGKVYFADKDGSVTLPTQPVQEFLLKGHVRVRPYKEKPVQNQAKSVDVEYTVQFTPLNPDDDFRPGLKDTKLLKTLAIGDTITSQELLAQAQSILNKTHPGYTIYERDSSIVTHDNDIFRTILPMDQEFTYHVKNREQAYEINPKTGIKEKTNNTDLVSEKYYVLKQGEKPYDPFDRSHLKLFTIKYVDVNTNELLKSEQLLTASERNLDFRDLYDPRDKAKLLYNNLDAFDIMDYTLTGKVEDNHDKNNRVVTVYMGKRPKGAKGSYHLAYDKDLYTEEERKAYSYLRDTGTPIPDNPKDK

[12] = test system: Streptococcus sp. 'group A'; assay: Streptococcus pyogenes SK(-)GAS viability under kanamycin – luminescence, BacTiterGlo, confirmation, counter-screen for streptokinase expression inhibitor project, dose response (AID 1900); assay type: functional, organism-based
[13] = target: T6, Polyadenylate-binding protein 1 (Homo sapiens, UniProt P11940); assay: MLLE domain peptide-binding blockers, IC50 – biochemical, fluorescence polarization, FITC-PAM2 peptide, dose response (AID 602259); assay type: functional; details: read-out: IC50_Mean
T6 sequence (P11940 whole entry, the tested form may be a part): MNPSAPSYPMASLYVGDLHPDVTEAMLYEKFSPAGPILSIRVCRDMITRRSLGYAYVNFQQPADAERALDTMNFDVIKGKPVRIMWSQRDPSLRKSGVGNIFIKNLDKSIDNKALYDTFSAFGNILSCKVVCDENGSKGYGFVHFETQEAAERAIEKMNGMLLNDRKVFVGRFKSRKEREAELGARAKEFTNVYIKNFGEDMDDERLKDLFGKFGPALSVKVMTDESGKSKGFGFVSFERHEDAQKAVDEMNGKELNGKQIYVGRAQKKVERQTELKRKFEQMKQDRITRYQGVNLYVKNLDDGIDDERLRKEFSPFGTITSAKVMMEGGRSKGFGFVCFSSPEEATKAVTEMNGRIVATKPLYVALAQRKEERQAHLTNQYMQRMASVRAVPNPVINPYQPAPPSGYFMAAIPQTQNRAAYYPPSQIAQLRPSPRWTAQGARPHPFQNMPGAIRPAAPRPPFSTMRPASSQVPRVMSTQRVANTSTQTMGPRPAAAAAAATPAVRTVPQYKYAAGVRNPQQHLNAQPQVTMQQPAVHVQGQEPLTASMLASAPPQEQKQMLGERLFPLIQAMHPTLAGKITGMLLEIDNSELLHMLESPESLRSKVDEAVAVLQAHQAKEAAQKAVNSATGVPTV

[14] = luciferase reporter signal suppression in cells – H4 neuroglioma cells, luminescence, dose response (AID 1990); assay type: functional, cell-based
[15] = alpha-synuclein stem-loop luciferase translation blockers – H4 neuroglioma cells, luminescence, confirmation (AID 1988); assay type: functional, cell-based
[16] = Trypanosoma cruzi growth suppression in host cells – NIH3T3 host cells, beta-gal luminescence, confirmation (AID 2044); assay type: functional, cell-based;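 also: intracellular parasites grown in NIH/3T3 mouse fibroblasts as host cells; luminescent beta-galactosidase reporter signal from transgenic T. cruzi replicating inside host cells; inhibitors lower the luminescence signal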
Vero [17] = assay: viability of Vero cells under compound – cytotoxicity control for flavivirus capping enzyme inhibitors (AID 588742); assay type: functional; details: Chlorocebus sabaeus
[18] = target: T6, Polyadenylate-binding protein 1; assay: MLLE binding blockers, Cy5 peptide tracer – biochemical, fluorescence polarization, Cy5-PAM2 peptide, secondary, miRNA deadenylation inhibitor project, dose response (AID 602260); assay type: functional; details: read-out: IC50_Mean
[19] = NIH3T3 cell viability loss – ATP luminescence, mouse fibroblasts, counter-screen, dose response (AID 2010); assay type: functional, cell-based;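 also: cells exposed to compound for about 90 hours before reading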
Genome polyprotein = Genome polyprotein (dengue virus type 2, UniProt P29990); assay: flavivirus cap methylation enzyme inhibition – biochemical, confirmation dose response, primary screen (AID 588689); assay type: functional
Genome polyprotein, sequence (P29990 2492-3391 limits assumed): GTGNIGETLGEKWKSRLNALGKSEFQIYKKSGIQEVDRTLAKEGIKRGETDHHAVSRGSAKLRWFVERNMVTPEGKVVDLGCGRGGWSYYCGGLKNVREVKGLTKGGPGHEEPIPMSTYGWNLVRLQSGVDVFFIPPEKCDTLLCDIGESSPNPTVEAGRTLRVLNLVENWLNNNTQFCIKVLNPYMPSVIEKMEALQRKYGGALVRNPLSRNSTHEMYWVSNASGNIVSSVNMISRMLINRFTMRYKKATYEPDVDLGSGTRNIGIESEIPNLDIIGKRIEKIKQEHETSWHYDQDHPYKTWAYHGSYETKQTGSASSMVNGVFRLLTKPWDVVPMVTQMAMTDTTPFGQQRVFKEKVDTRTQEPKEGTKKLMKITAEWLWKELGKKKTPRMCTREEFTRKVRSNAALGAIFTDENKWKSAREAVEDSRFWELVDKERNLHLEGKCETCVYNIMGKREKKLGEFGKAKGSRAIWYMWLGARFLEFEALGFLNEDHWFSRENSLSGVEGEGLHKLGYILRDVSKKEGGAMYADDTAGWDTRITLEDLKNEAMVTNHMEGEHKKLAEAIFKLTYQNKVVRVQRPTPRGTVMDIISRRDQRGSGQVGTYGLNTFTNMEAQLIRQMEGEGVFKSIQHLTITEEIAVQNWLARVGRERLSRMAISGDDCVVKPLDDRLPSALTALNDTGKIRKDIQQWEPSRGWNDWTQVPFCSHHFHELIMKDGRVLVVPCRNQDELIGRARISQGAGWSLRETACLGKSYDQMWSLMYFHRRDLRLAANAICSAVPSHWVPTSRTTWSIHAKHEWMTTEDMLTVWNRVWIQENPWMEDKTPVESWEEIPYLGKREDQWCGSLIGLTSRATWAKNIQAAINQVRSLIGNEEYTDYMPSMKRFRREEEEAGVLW

[20] = Luminescence Cell-Based Dose Response HTS to Identify Inhibitors of 5'UTR Stem-Loop Driven Prion Protein mRNA Translation in H4 Neuroglioblastoma Cells. [Related pubchem assays: 1827 (Project Summary), 1813 (Primary HTS)]; assay type: functional

## COc1ccc2[nH]c3c(N4CCN(Cc5ccc6c(c5)OCO6)CC4)ncnc3c2c1
[1]
  IC50: 2.58 µM (active)
[2]
  IC50: 2.79 µM (active)

## Clc1ccc2sc(C3CCNCC3)nc2c1
[3]
  EC50: 42.4 µM (active)
H4
  EC50: 0.168 µM (active)
[4]
  EC50: 0.141 µM (active)
[5]
  EC50: 0.008 µM (active)

## COc1ccc(C2=NOC(C(=O)N3CCCc4ccccc43)C2)cc1 (centres undefined)
Cytochrome P450 3A4
  AC50: 12.6 µM (inconclusive)
Cytochrome P450 2C9
  AC50: inconclusive
Cytochrome P450 2D6
  AC50: 20 µM (inconclusive)

## COCCCNC(=O)C1CCN(S(=O)(=O)N(CC(C)C)CC(C)C)CC1
Cytochrome P450 3A4
  AC50: 22.4 µM (inconclusive)
Cytochrome P450 2C9
  AC50: inconclusive

## Cc1cccc(C(=O)NC(=S)NNC(=O)Cc2ccccc2)c1
[6]
  IC50: 13.2 µM (active)
Leucine aminopeptidase
  IC50: 56.6 µM (active)
[7]
  EC50: 1.14 µM (active)
[8]
  EC50: > 150 µM (inactive)
Vero [9]
  CC50: > 25 µM (active)
Vero [10]
  IC50: 22.7 µM (active)
[5]
  EC50: 4.22 µM (active)
[11]
  AC50: 4.66 µM (active)

## CCOC(=O)c1c(C)c(C(=O)N2CCCCCC2)c(C)n1C
Cytochrome P450 2C9
  AC50: inconclusive
Cytochrome P450 1A2
  AC50: 25.1 µM (inconclusive)

## Cc1ccccc1/N=C/C=C1\N(C)c2ccccc2C1(C)C
[1]
  IC50: 5.61 µM (active)
[2]
  IC50: 2.44 µM (active)

## O=C(N/N=C/c1cc([N+](=O)[O-])cc(Br)c1O)C12CC3CCC(CC(C3)C1)C2
Streptococcus
  EC50: 19.7 µM (active)
Streptokinase A
  EC50: > 150 µM (not active)
[12]
  EC50: 4.67 µM (active)
Vero [9]
  CC50: > 25 µM (active)
[5]
  EC50: 2.99 µM (active)

## O=C1c2ccc3c4c(ccc(c24)C(=O)N1CCCCO)C(=O)N(CCCCO)C3=O
[13]
  IC50: 23.8 µM (inactive)
[14]
  EC50: > 120 µM (not active)
[15]
  EC50: 3.4 µM (active)
[1]
  IC50: 1.99 µM (active)
[16]
  EC50: 2.25 µM (active)
Vero [17]
  CC50: 5.55 µM (active)
[18]
  IC50: > 66 µM (inactive)
[19]
  EC50: 4.23 µM (active)
Genome polyprotein
  IC50: > 100 µM (active)
[2]
  IC50: 2.96 µM (active)
[20]
  EC50: 13.6 µM (active)
